Where two headings read alike, the source gives them in different places.
Tests used:
Type in all cases: in vivo
[1] = tested on: Beet Armyworm (Spodoptera exigua, LAPHEG); test: Bioassays on Beet Armyworm (BAW), 128-well diet tray assay; settings: Spodoptera exigua
Method in brief: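 One to five second-instar larvae per well on artificial diet surface-treated with 50 μg/cm^2 test molecule (applied in 90:10 acetone-water, dried), eight wells per compound. Trays held vented at 25° C., 14:10 light-dark for five to seven days; percent mortality averaged over the eight wells.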

[2] = tested on: Cabbage Looper (Trichoplusia ni, TRIPNI); test: Bioassays on Cabbage Looper (CL), 128-well diet tray assay; settings: Trichoplusia ni
Method in brief: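 Second-instar larvae (1–5 per well) placed on artificial diet surface-treated with 50 μg/cm^2 test molecule applied in 90:10 acetone-water and dried. Held at 25° C., 14:10 light-dark, for five to seven days. Percent mortality scored per well and averaged over eight wells.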

[3] = tested on: Yellow Fever Mosquito (Aedes aegypti, AEDSAE); settings: for YFM rating: Table ABC / ABC-DP rating
Method in brief: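 Compounds from 4000 ppm DMSO stocks were diluted in 90:10 water/acetone and dispensed into wells, then infested with about 1-day-old larvae in liver-powder water. Covered plates were held at room temperature for 3 days and each well was scored for mortality against a rating scale; six replicate plates per compound.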

[4] = Beet Armyworm, Table ABC / ABC-DP rating, read-out: BAW rating
[5] = Cabbage Looper, Table ABC / ABC-DP rating, read-out: CL rating
[6] = Beet Armyworm, rating class, read-out: BAW
[7] = Cabbage Looper, rating class, read-out: CL
[8] = Yellow Fever Mosquito, rating class
[9] = Table ABC: Biological Results, species BAW, read-out: BAW
[10] = Table ABC: Biological Results, species CL, read-out: CL
[11] = Table ABC: Biological Results, species YFM

Work on `Cl.NNC(=O)c1cc(NC(=O)[C@H]2[C@H](c3cc(Cl)cc(Cl)c3)C2(Cl)Cl)ccc1Cl` (relative stereo) [F2567, trans-2,2-dichloro-N-(4-chloro-3-(hydrazinecarbonyl)phenyl)-3-(3,5-dichlorophenyl)cyclopropane-1-carboxamide hydrochloride] yielded a mortality at 50 µg/cm2 ([1]; 168 h, second instar larvae, 50 μg/cm^2 of test molecule on artificial diet, 25° C., five to seven days, average of eight wells, read-out: BAW % Control (or Mortality) rating) of 50 to 100%, a pest or weed control at 50 µg/cm2 [1, 4] of 50 to 100% and a mortality at 50 µg/cm2 ([2]; 168 h, second instar larvae, 50 μg/cm^2 of test molecule on artificial diet, 25° C., five to seven days, average of eight wells, read-out: CL % Control (or Mortality) rating) of 50 to 100%. The pest or weed control at 50 µg/cm2 [2, 5] was 50 to 100%, the YFM rating ([3]; Yellow Fever Mosquito) was “A (80–100)” and the “YFM % Control (or Mortality) rating” value ([3]; about 1 day-old larvae, 4000 ppm master solution diluted with 90:10 water/acetone, 15 μL per well plus 220 μL larval mixture, 3 days, mortality) was “A (80–100)”.
In the case of `CC(=O)NCCCCNC(=O)c1cc(NC(=O)[C@H]2[C@H](c3cc(Cl)cc(Cl)c3)C2(Cl)Cl)ccc1Cl` (relative stereo) [F2068, trans-N-(4-Acetamidobutyl)-2-chloro-5-(2,2-dichloro-3-(3,5-dichlorophenyl)cyclopropane-1-carboxamido)benzamide], the pest or weed control at 50 µg/cm2 [1, 4] was 50 to 100%, the pest or weed control at 50 µg/cm2 [2, 5] was 50 to 100% and the YFM rating ([3]; Yellow Fever Mosquito) was “A (80–100)”.
For `CC1(C(=O)Nc2c(F)ccc(NC(=O)c3cc(NC(=O)[C@H]4[C@H](c5ccc(F)c(C(F)(F)F)c5)C4(Cl)Cl)ccc3Cl)c2F)CCCO1` (stereo partly drawn) [F1809, N-(3-(2-Chloro-5-((1R,3R)-2,2-dichloro-3-(4-fluoro-3-(trifluoromethyl)phenyl)cyclopropane-1-carboxamido)benzamido)-2,6-difluorophenyl)-2-methyltetrahydrofuran-2-carboxamide], the pest or weed control at 50 µg/cm2 [1, 4] was 50 to 100%, the pest or weed control at 50 µg/cm2 [2, 5] was 50 to 100% and the YFM rating ([3]; Yellow Fever Mosquito) was “A (80–100)”.
`CC(=O)Nc1c(F)cc(F)c(NC(=O)c2cc(NC(=O)[C@H]3[C@H](c4ccc(Cl)c(Cl)c4)C3(Cl)Cl)ccc2Cl)c1F` [F1629, N-(3-Acetamido-2,4,6-trifluorophenyl)-2-chloro-5-((1R,3R)-2,2-dichloro-3-(3,4-dichlorophenyl)cyclopropane-1-carboxamido)benzamide] was tested, and the pest or weed control at 50 µg/cm2 [1, 6] was 50 to 100%, the pest or weed control at 50 µg/cm2 [2, 7] was 50 to 100% and the YFM [3, 8] was “B (More than 0 – Less than 80)”.
In the case of `O=C(Nc1ccc(F)c(NC(=O)C(F)(F)Cl)c1F)c1cc(NC(=O)[C@H]2[C@H](c3ccc(Cl)c(C(F)(F)F)c3)C2(Cl)Cl)ccc1Cl` [F1719, 2-Chloro-N-(3-(2-chloro-2,2-difluoroacetamido)-2,4-difluorophenyl)-5-((1R,3R)-2,2-dichloro-3-(4-chloro-3-(trifluoromethyl)phenyl)cyclopropane-1-carboxamido)benzamide], the pest or weed control at 50 µg/cm2 [1, 6] was 50 to 100%, the pest or weed control at 50 µg/cm2 [2, 7] was 50 to 100% and the YFM [3, 8] was “A (80–100)”.
`CC(C)(C)OC(=O)Nc1c(F)ccc(NC(=O)c2cc(NC(=O)[C@H]3[C@H](c4cc(Cl)cc(Cl)c4)C3(F)F)ccc2Cl)c1F` (relative stereo) [F1070, trans-tert-Butyl (3-(2-chloro-5-(3-(3,5-dichlorophenyl)-2,2-difluorocyclopropane-1-carboxamido)benzamido)-2,6-difluorophenyl)carbamate] was tested, and the pest or weed control at 50 µg/cm2 [1, 9] was 50 to 100%, the pest or weed control at 50 µg/cm2 [2, 10] was 50 to 100% and the YFM [3, 11] was “A (80–100)”.
For `CCOCC(=O)Nc1c(F)ccc(NC(=O)c2cc(NC(=O)[C@H]3[C@H](c4ccc(F)c(C(F)(F)F)c4)C3(Cl)Cl)ccc2Cl)c1F` [F1363, 2-Chloro-5-((1R,3R)-2,2-dichloro-3-(4-fluoro-3-(trifluoromethyl)phenyl)cyclopropane-1-carboxamido)-N-(3-(2-ethoxyacetamido)-2,4-difluorophenyl)benzamide], the pest or weed control at 50 µg/cm2 [1, 9] was 50 to 100%, the pest or weed control at 50 µg/cm2 [2, 10] was 50 to 100% and the YFM [3, 11] was “A (80–100)”.
`CC(CC(F)(F)F)C(=O)Nc1c(F)ccc(NC(=O)c2cc(NC(=O)[C@H]3[C@H](c4ccc(F)c(Cl)c4)C3(Cl)Cl)ccc2Cl)c1F` (stereo partly drawn) [F1866, 2-Chloro-5-((1R,3R)-2,2-dichloro-3-(3-chloro-4-fluorophenyl)cyclopropane-1-carboxamido)-N-(2,4-difluoro-3-(4,4,4-trifluoro-2-methylbutanamido)phenyl) benzamide] was tested, and the pest or weed control at 50 µg/cm2 [1, 4] was 50 to 100%, the pest or weed control at 50 µg/cm2 [2, 5] was 50 to 100% and the YFM rating ([3]; Yellow Fever Mosquito) was “A (80–100)”.
With `CC(F)(F)C(=O)Nc1c(F)ccc(NC(=O)c2cc(NC(=O)[C@H]3[C@H](c4ccc(F)c(C(F)(F)F)c4)C3(Cl)Cl)ccc2Cl)c1F` [F1352, 2-Chloro-5-((1R,3R)-2,2-dichloro-3-(4-fluoro-3-(trifluoromethyl)phenyl)cyclopropane-1-carboxamido)-N-(3-(2,2-difluoropropanamido)-2,4-difluorophenyl)benzamide] the pest or weed control at 50 µg/cm2 [1, 9] was 50 to 100%, the pest or weed control at 50 µg/cm2 [2, 10] was 50 to 100% and the YFM [3, 11] was “A (80–100)”.
`CC(=O)Nc1c(F)ccc(NC(=O)c2cc(NC(=O)[C@H]3[C@H](c4cc(Cl)cc(Cl)c4)C3(Cl)Cl)ccc2Cl)c1Cl` (relative stereo) [F1160, trans-N-(3-acetamido-2-chloro-4-fluorophenyl)-2-chloro-5-(2,2-dichloro-3-(3,5-dichlorophenyl)cyclopropane-1-carboxamido)benzamide] was tested, and the pest or weed control at 50 µg/cm2 [1, 9] was 50 to 100%, the pest or weed control at 50 µg/cm2 [2, 10] was 50 to 100% and the YFM [3, 11] was “A (80–100)”.
In the case of `O=C(NCCCCNC(=O)C(F)(F)F)c1cc(NC(=O)[C@H]2[C@H](c3cc(Cl)cc(Cl)c3)C2(Cl)Cl)ccc1Cl` (relative stereo) [F2095, trans-2-Chloro-5-(2,2-dichloro-3-(3,5-dichlorophenyl)cyclopropane-1-carboxamido)-N-(4-(2,2,2-trifluoroacetamido)butyl)benzamide], the pest or weed control at 50 µg/cm2 [1, 4] was 50 to 100%, the pest or weed control at 50 µg/cm2 [2, 5] was 50 to 100% and the YFM rating ([3]; Yellow Fever Mosquito) was “A (80–100)”.
`CC(=O)OCN(C(=O)c1cc(NC(=O)[C@H]2[C@H](c3cc(Cl)cc(Cl)c3)C2(Cl)Cl)ccc1Cl)c1ccc(F)cc1C#N` (relative stereo) [F1084, trans-(2-Chloro-N-(2-cyano-4-fluorophenyl)-5-(2,2-dichloro-3-(3,5-dichlorophenyl)cyclopropane-1-carboxamido)benzamido)methyl acetate] was tested, and the pest or weed control at 50 µg/cm2 [1, 9] was 50 to 100%, the pest or weed control at 50 µg/cm2 [2, 10] was 50 to 100% and the YFM [3, 11] was “A (80–100)”.
`Cc1c(F)cc(NC(=O)[C@H]2[C@H](c3ccc(F)c(Cl)c3)C2(Cl)Cl)cc1C(=O)NCC(F)(F)C(F)(F)F` (relative stereo) [F2064, trans-5-(2,2-Dichloro-3-(3-chloro-4-fluorophenyl)cyclopropane-1-carboxamido)-3-fluoro-2-methyl-N-(2,2,3,3,3-pentafluoropropyl)benzamide] was tested, and the pest or weed control at 50 µg/cm2 [1, 4] was 50 to 100%, the pest or weed control at 50 µg/cm2 [2, 5] was 50 to 100% and the YFM rating ([3]; Yellow Fever Mosquito) was “A (80–100)”.
`CN(NC(=O)c1cc(NC(=O)[C@H]2[C@H](c3cc(Cl)cc(Cl)c3)C2(Cl)Cl)ccc1Cl)C(=O)CC1CC1` (relative stereo) [F2524, trans-2,2-Dichloro-N-(4-chloro-3-(2-(2-cyclopropylacetyl)-2-methylhydrazine-1-carbonyl)phenyl)-3-(3,5-dichlorophenyl)cyclopropane-1-carboxamide] was tested, and the pest or weed control at 50 µg/cm2 [1, 4] was 50 to 100%, the pest or weed control at 50 µg/cm2 [2, 5] was 50 to 100% and the YFM rating ([3]; Yellow Fever Mosquito) was “A (80–100)”.
For `O=C(NCC(F)(F)C(F)(F)F)c1cc(NC(=O)[C@H]2[C@H](c3ccc(F)c(C(F)(F)F)c3)C2(Cl)Cl)c(F)cc1Cl` [F2085, 2-Chloro-5-((1R,3R)-2,2-dichloro-3-(4-fluoro-3-(trifluoromethyl)phenyl)cyclopropane-1-carboxamido)-4-fluoro-N-(2,2,3,3,3-pentafluoropropyl)benzamide], the pest or weed control at 50 µg/cm2 [1, 4] was 50 to 100%, the pest or weed control at 50 µg/cm2 [2, 5] was 50 to 100% and the YFM rating ([3]; Yellow Fever Mosquito) was “A (80–100)”.
With `O=C(NCC(F)(F)F)c1cc(NC(=O)[C@H]2[C@@H](c3cc(C(F)(F)F)cc(Cl)c3F)C2(Cl)Cl)ccc1Cl` (relative stereo) [F2013, cis-2-Chloro-5-(2,2-dichloro-3-(3-chloro-2-fluoro-5-(trifluoromethyl)phenyl)cyclopropane-1-carboxamido)-N-(2,2,2-trifluoroethyl)benzamide] the pest or weed control at 50 µg/cm2 [1, 4] was 50 to 100%, the pest or weed control at 50 µg/cm2 [2, 5] was 50 to 100% and the YFM rating ([3]; Yellow Fever Mosquito) was “A (80–100)”.
With `Nc1c(F)ccc(NC(=O)c2cc(NC(=O)[C@H]3[C@H](c4ccc(Br)c(C(F)(F)F)c4)C3(Cl)Cl)ccc2Cl)c1F` (relative stereo) [F1116, trans-N-(3-Amino-2,4-difluorophenyl)-5-(3-(4-bromo-3-(trifluoromethyl)phenyl)-2,2-dichlorocyclopropane-1-carboxamido)-2-chlorobenzamide] the pest or weed control at 50 µg/cm2 [1, 9] was 50 to 100%, the pest or weed control at 50 µg/cm2 [2, 10] was 50 to 100% and the YFM [3, 11] was “A (80–100)”.
`O=C(Nc1ccc(F)c(NC(=O)[C@H]2CCCO2)c1F)c1cc(NC(=O)[C@H]2[C@H](c3ccc(F)c(C(F)(F)F)c3)C2(Cl)Cl)ccc1Cl` [F1691, (R)—N-(3-(2-Chloro-5-((1R,3R)-2,2-dichloro-3-(4-fluoro-3-(trifluoromethyl)phenyl)cyclopropane-1-carboxamido)benzamido)-2,6-difluorophenyl)tetrahydrofuran-2-carboxamide] was tested, and the pest or weed control at 50 µg/cm2 [1, 6] was 50 to 100%, the pest or weed control at 50 µg/cm2 [2, 7] was 50 to 100% and the YFM [3, 8] was “B (More than 0 – Less than 80)”.

— patent publication US20250228239A1, “MOLECULES HAVING PESTICIDAL UTILITY, AND INTERMEDIATES, COMPOSITIONS, AND PROCESSES, RELATED THERETO” (priority 2024, published 2025)
